Counter-ions that a name gives are not always drawn.
Legend:
[1] = Measurement of interfacial tension (polarity index) of emollients; assay type: physicochemical; settings: Tensimat Densimat TD2000
Excerpt: The term “polarity index” refers to non-polar or polar oils. Non-polar oils are mainly based on hydrocarbons and lack an electronegative element, such as oxygen. In contrast, polar oils contain heteroatoms that differ in electronegativity, which results in a dipole moment. However, such oils are still insoluble in water, i.e. hydrophob. The polarity index can be determined by measuring the interfacial tension between the respective oil and water.
Interfacial tension of the respective emollients as listed below was measured using a Tensimat Densimat TD2000.

[2] = stated in the description; cited from earlier work
[3] = Solubility measurements of UV filter in emollients; assay type: physicochemical; settings: 25° C., seven days
Description: The vial is placed in a thermostated water bath (25° C.) and the blend is stirred for seven days. If the tested UV-filter is fully soluble, additional filter is added until precipitation is observed. After seven days, the sample is centrifuged for 30 minutes at 13000 rpm. If the supernatant is turbid, it is filtered through a 0.2 μm non steril Membrex 25 PET filter.

In the case of `CC(C)OC(=O)CCCCC(=O)OC(C)C` [diisopropyl adipate], the polarity index [1] was 12 mN/m.

In the case of `COc1ccc(C(=O)CC(=O)c2ccc(C(C)(C)C)cc2)cc1` [BMDBM, 1-(4-(1,1-dimethylethyl)phenyl)-3-(4-methoxyphenyl)propane-1,3-dione], the absorption maximum [2] is listed as 357 nm.

Work on `CCOC(=O)CC(O)(CC(=O)OCC)C(=O)OCC` [triethyl citrate] yielded a polarity index [1] of 7 mN/m.

`O=C(OCCc1ccccc1)c1ccccc1` [phenethyl benzoate] gave a polarity index [1] of 19 mN/m.

Work on `CC(C)OC(=O)CCCCCCCCC(=O)OC(C)C` [diisopropyl sebacate] yielded a polarity index [1] of 19 mN/m.

In the case of `CCCCC(CC)COC(=O)/C=C/c1ccc(OC)cc1` (centres unmarked) [ethylhexyl methoxy cinnamate, 2-Ethylhexyl-(2E)-3-(4-methoxyphenyl)acrylate], the absorption maximum [2] is listed as 310 nm.

In the case of `CCCCC(CC)COC(=O)c1ccc(Nc2nc(Nc3ccc(C(=O)NC(C)(C)C)cc3)nc(Nc3ccc(C(=O)OCC(CC)CCCC)cc3)n2)cc1` (centres unmarked) [diethylhexyl-butamidotriazone, 4,4′-[[6-[[4-[[(1,1-dimethylethyl)amino]carbonyl]phenyl]amino]-1,3,5-triazin-2,4-diyl]diimino]bis-benzoic acid-bis(2-ethylhexyl)ester], the absorption maximum [2] is given as 310 nm.

`CCCCOC(=O)CC(O)(CC(=O)OCCCC)C(=O)OCCCC` [tributyl citrate] gave a polarity index [1] of 10 mN/m.

In the case of `CCCCCCCCCCC(CO)CCCCCCCC` (centres unmarked) [octyldodecanol], the polarity index [1] was 25 mN/m.

Molecule `CCCCOC(=O)CCCCC(=O)OCCCC` [dibutyl adipate] has a polarity index [1] of 14 mN/m.

For `C[Si]1(C)O[Si](C)(C)O[Si](C)(C)O[Si](C)(C)O[Si](C)(C)O1` [cyclopentasiloxane], the polarity index [1] was 32 mN/m.

With `CCCCCCOC(=O)c1ccccc1C(=O)c1ccc(N(CC)CC)cc1O` [DHHB, hexyl 2-[4-(diethylamino)-2-hydroxybenzoyl]benzoate] the solubility ([3]; in C12-15 alkyl benzoate) was 22%, the solubility ([3]; in butylene glycol dicaprylate/dicaprate) was 23% and the solubility ([3]; in caprylic capric triglyceride) was 14%. The solubility ([3]; in cyclomethicone) was <1%, the solubility ([3]; in dibutyl adipate) was 31% and the solubility ([3]; in diisopropyl adipate) was 21%. For the same molecule, the solubility ([3]; in diisopropyl sebacate) was 41%, the solubility ([3]; in hydrogenated polyisobutene) was <1% and the solubility ([3]; in mineral oil) was <1%. The solubility ([3]; in octyldodecanol) was 2.5%, the solubility ([3]; in phenethyl benzoate) was 57% and the solubility ([3]; in propylene glycol dicaprylate/dicaprate) was 22%. The solubility ([3]; in tributyl citrate) was 29.4%, the solubility ([3]; in triethyl citrate) was 29% and the absorption maximum [2] was 354 nm.

Reference: patent US12246082B2, “Efficient sunscreen compositions with diethylamino hydroxybenzoyl hexyl benzoate and butyl methoxydibenzoylmethane free of octocrylene” (BASF SE, priority 2019, dated 2025)
